Molecular target: T1, BTK (Homo sapiens, UniProt Q06187)
T1 construct: endogenous in cells; host or cells: TMD-8 cells
Assay: BTK degradation in TMD-8 cells, HTRF assay after 6 h treatment
Assay type: cell-based
Details: for DC50: IC50 (DC50) of BTK degradation; for Dmax: TMD8, maximum percentage of inhibition (degradation)
Outline: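 Remaining BTK was quantified by HTRF in lysates of TMD-8 cells after 6 h exposure to an 8-point, 6-fold compound series (500× stocks in DMSO starting at 1 mM; 0.2% DMSO). Lysis 30 min, antibodies overnight at room temperature, ratio read at 665/620 nm; DC50 fitted with a four-parameter logistic equation.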

T1 sequence (Q06187 whole entry): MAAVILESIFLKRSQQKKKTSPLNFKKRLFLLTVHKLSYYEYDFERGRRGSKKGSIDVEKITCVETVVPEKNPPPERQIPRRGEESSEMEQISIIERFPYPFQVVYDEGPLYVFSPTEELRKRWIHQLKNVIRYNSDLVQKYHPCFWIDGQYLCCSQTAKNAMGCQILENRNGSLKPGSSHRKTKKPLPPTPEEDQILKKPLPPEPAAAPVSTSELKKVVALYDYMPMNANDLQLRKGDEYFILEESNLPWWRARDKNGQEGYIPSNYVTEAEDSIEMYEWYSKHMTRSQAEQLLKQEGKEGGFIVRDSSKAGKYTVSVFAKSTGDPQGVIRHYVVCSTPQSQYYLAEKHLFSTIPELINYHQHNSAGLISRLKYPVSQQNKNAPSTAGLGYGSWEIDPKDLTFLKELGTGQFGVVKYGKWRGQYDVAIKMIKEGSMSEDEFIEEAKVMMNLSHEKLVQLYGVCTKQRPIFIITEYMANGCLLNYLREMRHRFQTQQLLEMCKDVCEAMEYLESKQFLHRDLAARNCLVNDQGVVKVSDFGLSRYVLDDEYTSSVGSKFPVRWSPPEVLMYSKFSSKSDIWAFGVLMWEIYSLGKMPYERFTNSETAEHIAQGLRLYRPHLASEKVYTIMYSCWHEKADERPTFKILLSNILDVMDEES

| Compound | DC50 [nM] | Dmax [%] |
| --- | --- | --- |
| Cc1cc(-c2n[nH]c3ncc(-c4ccc(N5CCN(CC(C)c6ccc(N7CCC(=O)NC7=O)cc6)CC5)cc4)cc23)ccc1[C@@H](C)NC(=O)c1noc(C(C)(C)C)n1 (stereo partly drawn) [Example 160, 5-(tert-butyl)-N-((1R)-1-(4-(5-(4-(4-(2-(4-(2,4-dioxotetrahydropyrimidin-1(2H)-yl)phenyl)propyl)piperazin-1-yl)phenyl)-1H-pyrazolo[3,4-b]pyridin-3-yl)-2-methylphenyl)ethyl)-1,2,4-oxadiazole-3-carboxamide] | 10.6 | – |
| Cc1cc(-c2n[nH]c3ncc(-c4ccc(N5CCN(CC6CCN(c7ccc(N8CCC(=O)NC8=O)cc7F)CC6)CC5)cc4)cc23)ccc1[C@@H](C)NC(=O)c1noc(C(C)(C)C)n1 [Example 134, (R)-5-(tert-butyl)-N-(1-(4-(5-(4-(4-((1-(4-(2,4-dioxotetrahydropyrimidin-1(2H)-yl)-2-fluorophenyl)piperidin-4-yl)methyl)piperazin-1-yl)phenyl)-1H-pyrazolo[3,4-b]pyridin-3-yl)-2-methylphenyl)ethyl)-1,2,4-oxadiazole-3-carboxamide] | 9.96 | – |
| Cc1cc(-c2n[nH]c3ncc(-c4ccc(N5CCN(C6CCN(c7ccc(NC8CCC(=O)NC8=O)cc7)CC6)CC5)cc4)cc23)ccc1[C@@H](C)NC(=O)c1noc(C(C)(C)C)n1 (stereo partly drawn) [Example 180, 5-(tert-butyl)-N-((1R)-1-(4-(5-(4-(4-(1-(4-((2,6-dioxopiperidin-3-yl)amino)phenyl)piperidin-4-yl)piperazin-1-yl)phenyl)-1H-pyrazolo[3,4-b]pyridin-3-yl)-2-methylphenyl)ethyl)-1,2,4-oxadiazole-3-carboxamide] | 4.81 | – |
| Cc1cc(-c2n[nH]c3ncc(-c4ccc(N5CCN(CC6CCN(c7ccc(N8CCC(=O)NC8=O)cc7)CC6)CC5)cc4)cc23)c(F)cc1[C@@H](C)NC(=O)c1noc(C(C)(C)C)n1 [Example 44, (R)-5-(tert-butyl)-N-(1-(4-(5-(4-(4-((1-(4-(2,4-dioxotetrahydropyrimidin-1(2H)-yl)phenyl)piperidin-4-yl)methyl)piperazin-1-yl)phenyl)-1H-pyrazolo[3,4-b]pyridin-3-yl)-5-fluoro-2-methylphenyl)ethyl)-1,2,4-oxadiazole-3-carboxamide] | 6.02 | – |
| Cc1cc(-c2n[nH]c3ncc(-c4ccc(C5CCN(CCc6ccc(C7CCC(=O)NC7=O)c7ccccc67)CC5)cc4)cc23)ccc1CNC(=O)c1nc(C(C)(C)C)no1 (stereo not drawn) [Example 25, 3-(tert-butyl)-N-(4-(5-(4-(1-(2-(4-(2,6-dioxopiperidin-3-yl)naphthalen-1-yl)ethyl)piperidin-4-yl)phenyl)-1H-pyrazolo[3,4-b]pyridin-3-yl)-2-methylbenzyl)-1,2,4-oxadiazole-5-carboxamide] | 8.16 | 96.7 |
| Cc1cc(-c2n[nH]c3ncc(-c4ccc(N5CCN(CCC6CCN(c7ccc(C8CCC(=O)NC8=O)c(F)c7)CC6)CC5)cc4)cc23)ccc1CNC(=O)c1noc(C(C)(C)C)n1 (stereo not drawn) [Example 48, 5-(tert-butyl)-N-(4-(5-(4-(4-(2-(1-(4-(2,6-dioxopiperidin-3-yl)-3-fluorophenyl)piperidin-4-yl)ethyl)piperazin-1-yl)phenyl)-1H-pyrazolo[3,4-b]pyridin-3-yl)-2-methylbenzyl)-1,2,4-oxadiazole-3-carboxamide] | 4.76 | – |
| CC(C)(C)c1noc(C(=O)NCc2ccc(-c3n[nH]c4ncc(-c5ccc(C6CCN(CCc7ccc(C8CCC(=O)NC8=O)cc7)CC6)cc5)cc34)cc2F)n1 (stereo not drawn) [Example 14, 3-(tert-butyl)-N-(4-(5-(4-(1-(4-(2,6-dioxopiperidin-3-yl)phenethyl)piperidin-4-yl)phenyl)-1H-pyrazolo[3,4-b]pyridin-3-yl)-2-fluorobenzyl)-1,2,4-oxadiazole-5-carboxamide] | 4.74 | 95.2 |
| Cc1cc(-c2n[nH]c3ncc(-c4ccc(C5CCN(CCc6ccc([C@@H]7CCC(=O)NC7=O)cc6)CC5)nc4)cc23)ccc1[C@@H](C)NC(=O)c1noc(C(C)(C)C)n1 [Example 153, 5-(tert-butyl)-N—((R)-1-(4-(5-(6-(1-(4-((S)-2,6-dioxopiperidin-3-yl)phenethyl)piperidin-4-yl)pyridin-3-yl)-1H-pyrazolo[3,4-b]pyridin-3-yl)-2-methylphenyl)ethyl)-1,2,4-oxadiazole-3-carboxamide] | 11.8 | – |
| Cc1c(CNC(=O)c2nc(C(C)(C)C)no2)ccc(-c2n[nH]c3ncc(-c4ccc(C5CCN(CC6CCN(c7ccc(N8CCC(=O)NC8=O)cc7)CC6)CC5)cc4)cc23)c1F [Example 219, 3-(tert-butyl)-N-(4-(5-(4-(1-((1-(4-(2,4-dioxotetrahydropyrimidin-1(2H)-yl)phenyl)piperidin-4-yl)methyl)piperidin-4-yl)phenyl)-1H-pyrazolo[3,4-b]pyridin-3-yl)-3-fluoro-2-methylbenzyl)-1,2,4-oxadiazole-5-carboxamide] | 2.23 | – |
| Cc1cc(-c2n[nH]c3ncc(-c4ccc(N5CCN(CC6CCN(c7ccc(N8CCC(=O)NC8=O)c(Cl)c7)CC6)CC5)cc4)cc23)ccc1[C@@H](C)NC(=O)c1noc(C(C)(C)C)n1 [Example 115, (R)-5-(tert-butyl)-N-(1-(4-(5-(4-(4-((1-(3-chloro-4-(2,4-dioxotetrahydropyrimidin-1(2H)-yl)phenyl)piperidin-4-yl)methyl)piperazin-1-yl)phenyl)-1H-pyrazolo[3,4-b]pyridin-3-yl)-2-methylphenyl)ethyl)-1,2,4-oxadiazole-3-carboxamide] | 4.87 | – |
| Cc1cc(-c2n[nH]c3ncc(-c4ccc(C5CCN(CCc6ccc(OC7CCC(=O)NC7=O)cc6)CC5)cc4)cc23)ccc1CNC(=O)c1nc(C(C)(C)C)no1 (stereo not drawn) [Example 29, 3-(tert-butyl)-N-(4-(5-(4-(1-(4-((2,6-dioxopiperidin-3-yl)oxy)phenethyl)piperidin-4-yl)phenyl)-1H-pyrazolo[3,4-b]pyridin-3-yl)-2-methylbenzyl)-1,2,4-oxadiazole-5-carboxamide] | 3.2 | 95.4 |
| Cc1cc(-c2n[nH]c3ncc(-c4ccc(N5CCN(CCc6ccc([C@H]7CCC(=O)NC7=O)cc6)CC5)cn4)cc23)ccc1[C@@H](C)NC(=O)c1noc(C(C)(C)C)n1 [Example 162, 5-(tert-butyl)-N—((R)-1-(4-(5-(5-(4-(4-((R)-2,6-dioxopiperidin-3-yl)phenethyl)piperazin-1-yl)pyridin-2-yl)-1H-pyrazolo[3,4-b]pyridin-3-yl)-2-methylphenyl)ethyl)-1,2,4-oxadiazole-3-carboxamide] | 1.01 | – |
| Cc1cc(-c2n[nH]c3ncc(-c4ccc(N5CCN(CCc6ccc([C@H]7CCC(=O)NC7=O)c(F)c6)CC5)cn4)cc23)ccc1[C@@H](C)NC(=O)c1noc(C(C)(C)C)n1 [Example 181, 5-(tert-butyl)-N—((R)-1-(4-(5-(5-(4-(4-((R)-2,6-dioxopiperidin-3-yl)-3-fluorophenethyl)piperazin-1-yl)pyridin-2-yl)-1H-pyrazolo[3,4-b]pyridin-3-yl)-2-methylphenyl)ethyl)-1,2,4-oxadiazole-3-carboxamide] | 1.24 | – |
| Cc1cc(-c2n[nH]c3ncc(-c4ccc(C5CCN(CC6CCN(c7ccc(N8CCC(=O)NC8=O)cc7)CC6)CC5)cn4)cc23)ccc1[C@@H](C)NC(=O)c1noc(C(C)(C)C)n1 [Example 72, (R)-5-(tert-butyl)-N-(1-(4-(5-(5-(1-((1-(4-(2,4-dioxotetrahydropyrimidin-1(2H)-yl)phenyl)piperidin-4-yl)methyl)piperidin-4-yl)pyridin-2-yl)-1H-pyrazolo[3,4-b]pyridin-3-yl)-2-methylphenyl)ethyl)-1,2,4-oxadiazole-3-carboxamide] | 1.21 | – |
| Cc1cc(-c2n[nH]c3ncc(-c4ccc(N5CCN(CC6CCN(c7ccc(N8CCC(=O)NC8=O)c(F)c7)CC6)CC5)cc4)cc23)ccc1[C@@H](C)NC(=O)c1noc(C(C)(C)C)n1 [Example 38, (R)-5-(tert-butyl)-N-(1-(4-(5-(4-(4-((1-(4-(2,4-dioxotetrahydropyrimidin-1(2H)-yl)-3-fluorophenyl)piperidin-4-yl)methyl)piperazin-1-yl)phenyl)-1H-pyrazolo[3,4-b]pyridin-3-yl)-2-methylphenyl)ethyl)-1,2,4-oxadiazole-3-carboxamide] | 3.2 | – |
| Cc1cc(-c2n[nH]c3ncc(-c4ccc(C5(O)CCN(CC6CCN(c7ccc(N8CCC(=O)NC8=O)cc7)CC6)CC5)cc4)cc23)ccc1[C@@H](C)NC(=O)c1nc(C(C)(C)C)no1 [Example 201, (R)-3-(tert-butyl)-N-(1-(4-(5-(4-(1-((1-(4-(2,4-dioxotetrahydropyrimidin-1(2H)-yl)phenyl)piperidin-4-yl)methyl)-4-hydroxypiperidin-4-yl)phenyl)-1H-pyrazolo[3,4-b]pyridin-3-yl)-2-methylphenyl)ethyl)-1,2,4-oxadiazole-5-carboxamide] | 1.79 | – |
| Cc1cc(N2CCC(CN3CCN(c4ccc(-c5cnc6[nH]nc(-c7ccc([C@@H](C)NC(=O)c8noc(C(C)(C)C)n8)c(CO)c7)c6c5)cn4)CC3)CC2)ccc1N1CCC(=O)NC1=O [Example 179, (R)-5-(tert-butyl)-N-(1-(4-(5-(6-(4-((1-(4-(2,4-dioxotetrahydropyrimidin-1(2H)-yl)-3-methylphenyl)piperidin-4-yl)methyl)piperazin-1-yl)pyridin-3-yl)-1H-pyrazolo[3,4-b]pyridin-3-yl)-2-(hydroxymethyl)phenyl)ethyl)-1,2,4-oxadiazole-3-carboxamide] | 6.28 | – |
| Cc1cc(-c2n[nH]c3ncc(-c4ccc(N5CCN(CCc6ccc([C@@H]7CCC(=O)NC7=O)cc6)CC5)cc4)cc23)ccc1[C@@H](C)NC(=O)c1noc(C(C)(C)C)n1 [Example 112, 5-(tert-butyl)-N—((R)-1-(4-(5-(4-(4-(4-((S)-2,6-dioxopiperidin-3-yl)phenethyl)piperazin-1-yl)phenyl)-1H-pyrazolo[3,4-b]pyridin-3-yl)-2-methylphenyl)ethyl)-1,2,4-oxadiazole-3-carboxamide] | 1.79 | – |
